logP data for 23 compounds are collected here from the SangsterLogP compilation.

Molecules are shown by their SMILES.

One series is described as follows: method code SF-AQ, from DOI: 10.1248/cpb.32.4994, PMID: 6534548.
For the compound `CCc1cccc(N(C(C)=O)c2ccccc2)c1`, the logP (usually the decadic logarithm of the partition coefficient of the neutral form, usually between octanol and water) came out at 3.47.

A short description of another series: method code SF-AS, from DOI: 10.1248/cpb.32.4994, PMID: 6534548.
In turn, `O=C(Cc1ccccc1)Nc1cccc(I)c1` came in with a logP of 3.91.
Still for that read-out and setting: then `CC(=O)N(c1ccccc1)c1ccc(C)cc1`, with 3.05; and `O=C(Cc1ccccc1)Nc1cccc([N+](=O)[O-])c1`, with 2.93.
In the case of `CCNc1cccc(NC(=O)Cc2ccccc2)c1`, the logP worked out at 2.59.
In the case of `CNc1cccc(NC(=O)Cc2ccccc2)c1`, the logP is 2.31.
`O=C(Cc1ccccc1)Nc1cccc(Br)c1` registered a log partition coefficient (logP) of 3.77.
`Cc1cccc(NC(=O)Cc2ccccc2)c1` displayed a logP of 3.14.
Still for that read-out and setting: then `O=C(Cc1ccccc1)Nc1ccc(Cl)cc1`, with 3.54; and `O=C(Cc1ccccc1)Nc1cccc(O)c1`, with 2.22; and `CC(=O)Oc1cccc(NC(=O)Cc2ccccc2)c1`, with 2.37.
As for `O=C(Cc1ccccc1)Nc1cccc(F)c1`, the logP came out at 3.1.
With `Nc1cccc(NC(=O)Cc2ccccc2)c1`, the logP is 1.59.
`COc1ccc(NC(=O)Cc2ccccc2)cc1` showed a logP of 2.49.
Still for that read-out and setting: for `COc1cccc(NC(=O)Cc2ccccc2)c1` the value was 2.86; for `N#Cc1cccc(NC(=O)Cc2ccccc2)c1`, 2.75; for `O=C(Cc1ccccc1)Nc1ccc(F)cc1`, 2.86.
Consider `O=C(Cc1ccccc1)Nc1cccc(Cl)c1`, for which the logP came out at 3.61.
In the case of `CC(=O)c1ccc(NC(=O)Cc2ccccc2)cc1`, the logP worked out at 2.75.
On the same count and under the same terms, then `CS(=O)(=O)Oc1cccc(NC(=O)Cc2ccccc2)c1`, with 2.32.
`CC(=O)c1cccc(NC(=O)Cc2ccccc2)c1` had a logP of 2.62.
Same read-out and setting: then `O=C(Cc1ccccc1)Nc1ccc(O)cc1`, with 1.82.

The nature of another series: method code AS, from DOI: 10.1248/cpb.32.4994, PMID: 6534548.
In turn, `O=C(Cc1ccccc1)Nc1ccc(Br)cc1` returned a logP of 3.7.
